{
  "source": "patent US20190160064A1",
  "about": "“METHODS FOR TREATING SKELETAL MUSCLE CACHEXIA ARISING FROM BURN INJURY BY ADMINISTERING PDE4B-SELECTIVE INHIBITORS” (University of Cincinnati, priority 2017, published 2019)",
  "key": {"[1]": {"test_system": "EDL muscle of burned WT rats", "assay": "Pre-treatment of WT rats before burn injury, EDL muscle protein breakdown (Example 6)", "format": "in vivo, rat", "conditions": "adult WT rats pre-treated daily for 7 days before 30% TBSA burn, 24 h after burn, vs. saline control WT rats", "description": "Adult WT rats are pre-treated with either PDE4B-selective inhibitor (4-{[2-(5-Chloro-2-thienyl)-5-ethyl-6-methyl-4-pyrimidinyl]amino}phenyl)acetic acid (test group) or saline (control group). Rats are treated daily for 7 days prior to burn exposure. On day 8, rats are anaesthetized, shaved, and subjected to a third-degree burn on the back, affecting 30% of total body surface area (TBSA). Both test WT rats and control WT rats are then resuscitated. All rats are provided with rat chow equivalent to ˜10% of their body weight.\nAfter 24 h, all rats are re-anesthetized and the gastrocnemius muscles are dissected and rapidly frozen in liquid nitrogen. To assess protein breakdown rates, the dissected extensor digitorum longus (EDL) muscles are tied by the tendons at resting length to stainless steel supports and preincubated in a shaking water bath for 30 min at 37° C. in individually stoppered 25 ml flasks containing oxygenated (95% 02-5% CO2) Krebs-Henseleit bicarbonate buffer (pH 7.4) with 10 mM glucose. Muscles are then transferred to fresh buffer containing 0.5 mM cycloheximide for 2 h incubation. The total (tyrosine) and myofibrillar (1-methyl-histidine, 1-Me-His) protein breakdown rates are determined by measuring the net production of tyrosine and 1-Me-His during 2 h incubation."}, "PDE4D in lung tissue": {"test_system": "PDE4D in lung tissue", "conditions": "murine model of asthma; cited from earlier work"}, "[2]": {"test_system": "EDL muscle of burn-PDE4B KO rats", "assay": "EDL muscle protein breakdown during 2 h in vitro incubation with EPAC/PKA inhibitors", "format": "cell-based, rat", "conditions": "EDL muscle of burn-PDE4B KO rats obtained 24 h after burn, 2 h in vitro incubation with inhibitor", "description": "After 24 h, rats were re-anesthetized with pentobarbital (50 mg/kg), and the gastrocnemius muscles were dissected and rapidly frozen in liquid nitrogen. To assess protein breakdown rates, the dissected extensor digitorum longus (EDL) muscles were tied by the tendons at resting length to stainless steel supports and preincubated in a shaking water bath for 30 min at 37° C. in individually stoppered 25 ml flasks containing 3 ml oxygenated (95% 02-5% CO2) Krebs-Henseleit bicarbonate buffer (pH 7.4) with 10 mM glucose. Muscles were then transferred to fresh buffer containing 0.5 mM cycloheximide for 2 h incubation. The total (tyrosine) and myofibrillar (1-methyl-histidine, 1-Me-His) protein breakdown rates were determined by measuring the net production of tyrosine and 1-Me-His during 2 h incubation, according to previously published HPLC procedures (Balasubramaniam, A., et al., Torbafylline (HWA 448) inhibits skeletal muscle proteolysis in burned rats, J. Burn Care & Res. 30: S151 (2009)). The protein breakdown studies with PDE4B KO-rats were repeated with eight each of sham and burn rats to corroborate our initial findings. Additional in vivo experiments were performed to obtain tissues for biochemical studies and to study the effects of inhibitors of PKA (H89) and EPAC (ESI-09) on EDL protein breakdown in PDE4B KO-rats.\nTo elucidate the factor(s) imparting resistance to burn-induced skeletal muscle proteolysis in PDE4B-KO rats, EDL muscles of burn-PDE4B KO rats were incubated in the presence of inhibitors for cAMP downstream elements, PKA (H89) and EPAC (ESI-09)."}, "[3]": {"test_system": "burn-induced skeletal muscle proteolysis", "conditions": "rat, burn injury; cited from earlier work"}, "mouse myotubes, C2C12": {"test_system": "mouse myotubes, C2C12", "conditions": "C2C12 myotubes treated with TNFα+IFNγ; cited from earlier work"}},
  "data": [
    {"compound": "CCc1c(C)nc(-c2ccc(Cl)s2)nc1Nc1ccc(CC(=O)O)cc1", "note": "[Compound 33, (4-{[2-(5-Chloro-2-thienyl)-5-ethyl-6-methyl-4-pyrimidinyl]amino}phenyl) acetic acid]", "values": [
      {"measurement": "1-Me-His release from the EDL muscle (myofibrillar protein breakdown)", "setting": "[1]", "result": "significantly decreases"},
      {"measurement": "Tyr release from the EDL muscle (total protein breakdown)", "setting": "[1]", "result": "significantly decreases"}
    ]},
    {"compound": "ciclamilast", "values": [
      {"measurement": "PDE4D activity in lung tissue", "setting": "PDE4D in lung tissue", "result": "normalized"},
      {"measurement": "PDE4D mRNA expression in lung tissue", "setting": "PDE4D in lung tissue", "result": "normalized"}
    ]},
    {"compound": "CC(C)(C)c1cc(C(=O)/C(C#N)=N/Nc2cccc(Cl)c2)no1", "note": "[ESI-09]", "values": [
      {"measurement": "burn-induced EDL muscle myofibrillar protein breakdown (1-Me-His)", "setting": "[2]", "result": "to the same extent as in the EDL muscle of burn-WT rats"},
      {"measurement": "burn-induced EDL muscle total protein breakdown (Tyr)", "setting": "[2]", "result": "to the same extent as in the EDL muscle of burn-WT rats"}
    ]},
    {"compound": "CCOCn1cnc2c1c(=O)n(CCCCC(C)(C)O)c(=O)n2C", "note": "[torbafylline]", "values": [
      {"measurement": "EPAC/PI3K/Akt pathway", "setting": "[3]", "result": "activating"},
      {"measurement": "burn-induced skeletal muscle proteolysis", "setting": "[3]", "result": "significantly attenuated"},
      {"measurement": "skeletal muscle PDE4 activity", "setting": "[3]", "result": "normalizing"},
      {"measurement": "skeletal muscle cAMP concentrations", "setting": "[3]", "result": "normalizing"},
      {"measurement": "PDE4B expression", "setting": "mouse myotubes, C2C12", "result": "normalized"},
      {"measurement": "proteolysis (protein breakdown)", "setting": "mouse myotubes, C2C12", "result": "normalized"}
    ]},
    {"compound": "O=S(=O)(NCCNC/C=C/c1ccc(Br)cc1)c1cccc2cnccc12", "note": "[Compound H89]", "values": [
      {"measurement": "burn-induced EDL muscle myofibrillar protein breakdown (1-Me-His)", "setting": "[2]", "result": "did not exhibit any effect"},
      {"measurement": "burn-induced EDL muscle total protein breakdown (Tyr)", "setting": "[2]", "result": "did not exhibit any effect"}
    ]}
  ]
}
